# Source: ChEMBL document CHEMBL3044602, “In vitro antiproliferative effect of -phenylethylamine derivatives and doxorubicin combinations on MCF/ADR cell lines” (Med Chem Res, 2013)
# pIC50: −log10 of the molar value.
# Legend:
# [1] = test system: MCF7; experiment: Cytotoxicity against Homo sapiens (human) MCF7 cells assessed as inhibition of cell proliferation after 48 hr by SRB assay; format: cell-based; details: mcf7, 48 h
# [2] = Cytotoxicity against Homo sapiens (human) MCF7/ADR cells assessed as inhibition of cell proliferation after 48 hr by SRB assay; format: cell-based, NCI/ADR-RES; details: for IC10: human
# [3] = target: ATP-dependent translocase ABCB1 (Homo sapiens, UniProt P08183); experiment: Inhibition of P-glycoprotein in Homo sapiens (human) MCF7/ADR cells assessed as doxorubicin-induced growth inhibition after 48 hr by SRB assay (Doxorubicin Rvb = 5.1 +/-1.2%); format: cell-based; details: nci/adr-res
# Chain of ATP-dependent translocase ABCB1 (P08183 whole entry): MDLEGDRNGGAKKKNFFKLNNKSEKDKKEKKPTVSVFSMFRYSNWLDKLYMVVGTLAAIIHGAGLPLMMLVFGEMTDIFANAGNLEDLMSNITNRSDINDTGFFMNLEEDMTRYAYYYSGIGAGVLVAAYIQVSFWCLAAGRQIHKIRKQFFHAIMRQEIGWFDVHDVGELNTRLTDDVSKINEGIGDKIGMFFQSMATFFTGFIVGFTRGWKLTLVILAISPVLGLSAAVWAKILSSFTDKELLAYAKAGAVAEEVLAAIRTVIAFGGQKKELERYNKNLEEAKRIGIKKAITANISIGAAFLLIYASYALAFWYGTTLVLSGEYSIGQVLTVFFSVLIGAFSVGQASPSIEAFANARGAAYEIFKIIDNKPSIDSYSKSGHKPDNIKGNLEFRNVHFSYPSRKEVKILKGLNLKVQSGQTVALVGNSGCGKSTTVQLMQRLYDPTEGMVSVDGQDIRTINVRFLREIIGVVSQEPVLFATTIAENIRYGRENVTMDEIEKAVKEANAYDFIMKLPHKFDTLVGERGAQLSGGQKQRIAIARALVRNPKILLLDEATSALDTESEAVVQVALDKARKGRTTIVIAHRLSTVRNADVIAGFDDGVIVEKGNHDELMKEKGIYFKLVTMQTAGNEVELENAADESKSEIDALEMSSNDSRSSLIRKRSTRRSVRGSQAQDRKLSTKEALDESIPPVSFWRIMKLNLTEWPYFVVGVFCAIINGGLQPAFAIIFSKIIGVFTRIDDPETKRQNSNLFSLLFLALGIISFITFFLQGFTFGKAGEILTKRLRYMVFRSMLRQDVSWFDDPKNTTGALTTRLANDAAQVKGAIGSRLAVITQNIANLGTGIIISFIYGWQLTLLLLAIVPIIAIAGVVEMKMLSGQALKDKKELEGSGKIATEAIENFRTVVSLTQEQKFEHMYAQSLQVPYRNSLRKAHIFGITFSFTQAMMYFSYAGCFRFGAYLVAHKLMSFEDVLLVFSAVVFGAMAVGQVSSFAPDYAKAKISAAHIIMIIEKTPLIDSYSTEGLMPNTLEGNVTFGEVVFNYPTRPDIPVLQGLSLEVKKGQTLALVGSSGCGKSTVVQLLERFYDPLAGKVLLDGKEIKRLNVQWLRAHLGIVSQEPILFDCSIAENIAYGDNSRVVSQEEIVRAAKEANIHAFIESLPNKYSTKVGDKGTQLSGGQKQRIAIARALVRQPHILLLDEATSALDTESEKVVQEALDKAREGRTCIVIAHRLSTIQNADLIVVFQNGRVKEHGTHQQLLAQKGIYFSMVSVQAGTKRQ
# [4] = Homo sapiens, NCI/ADR-RES, 48 h
Structure (SMILES),Activity [1],"pIC50 [2, 4]","IC10 ([2]; nci/adr-res, 48 h)",growth inhibition (GI) [3],pIC50 ([2]; nci/adr-res)
COC(=O)C(CNCCc1ccc(OC)c(OC)c1)C(O)c1ccccc1 (mixture of isomers),Non-toxic,3.62,14 µM,11.8%,–
"COC(=O)C(CNCCc1ccc(OC)c(OC)c1)C(O)c1ccc(OC)c(OC)c1 (single isomer, unassigned; form 2)",–,–,30.1 µM,–,3.53
COC(=O)C(CNCCc1ccc(OC)c(OC)c1)Cc1ccc(OC)c(OC)c1 (racemic),Non-toxic,4.54,2.39 µM,6.9%,–
COC(=O)C(CNCCc1ccc(OC)c(OC)c1)C(O)c1ccc([N+](=O)[O-])cc1 (centres undefined),Non-toxic,4.07,15.7 µM,12.9%,–
COC(=O)C(CNCCc1ccc(OC)c(OC)c1)Cc1ccccc1 (racemic),Non-toxic,3.71,15.2 µM,3.2%,–
COC(=O)/C(=C\c1ccccc1)CNCCc1ccc(OC)c(OC)c1,Non-toxic,4.12,12.9 µM,16.1%,–
COC(=O)/C(=C\c1ccc(OC)c(OC)c1)CNCCc1ccc(OC)c(OC)c1,Non-toxic,3.95,7.47 µM,87.7%,–
COC(=O)/C(=C\c1ccc2c(c1)OCO2)CNCCc1ccc(OC)c(OC)c1,Non-toxic,3.61,13.8 µM,43.3%,–
COC(=O)C(CNCCc1ccc(OC)c(OC)c1)C(O)c1ccc(OC)c(OC)c1 (mixture of isomers),Non-toxic,–,–,6.8%,–
COC(=O)C(CNCCc1ccc(OC)c(OC)c1)C(O)c1ccc2c(c1)OCO2 (mixture of isomers),Non-toxic,3.62,20.7 µM,10.4%,–
"COC(=O)C(CNCCc1ccc(OC)c(OC)c1)C(O)c1ccc(OC)c(OC)c1 (single isomer, unassigned; form 1)",–,3.43,38.2 µM,–,–
COC(=O)C(CNCCc1ccc(OC)c(OC)c1)Cc1ccc2c(c1)OCO2 (racemic),Non-toxic,3.73,10.5 µM,5.8%,–
COC(=O)/C(=C\c1ccc([N+](=O)[O-])cc1)CNCCc1ccc(OC)c(OC)c1,–,6.05,0.05 µM,–,–
